# Measurements from patent US20250163074A1, “CDK Inhibitors And Their Use As Pharmaceuticals” (Prelude Therapeutics Incorporated, priority 2020, published 2025).
# How the values were obtained:
# [1] = biological target: CDK4/Cyclin D1 (Homo sapiens (Human), UniProt P11802); experiment: CDK4/CyclinD1 enzymatic activity assay (TR-FRET); assay type: biochemical; details: CDK4/CyclinD1 1 nM, ATP 2 mM, read-out: CDK4_D1 IC50
# In short: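 Insect-cell CDK4/Cyclin D1 (1 nM) with ULight-4E-BP1 (100 nM) and 2 mM ATP in HEPES pH 7.4 buffer, preincubated 20 min with compound (9-dose, 3-fold dilutions); 10 mM MgCl2 started the reaction, run 60 min at 37 °C. EDTA/Eu-anti-phospho-4E-BP1 TR-FRET detection; IC50 from 4-parameter Hill fit.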
# [2] = biological target: CDK6/Cyclin D1 (Homo sapiens (Human), UniProt Q00534); experiment: CDK6/CyclinD1 enzymatic activity assay (TR-FRET); assay type: biochemical; details: CDK6/Cyclin D1 1 nM, ATP 250 μM, read-out: CDK6_D1 IC50
# In short: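 Insect-cell-expressed CDK6/Cyclin D1 (1 nM) phosphorylated ULight-4E-BP1 (100 nM) with 250 μM ATP in HEPES pH 7.4 buffer. After 20 min compound preincubation, reactions were started with 10 mM MgCl2 and run 60 min at 37 °C. EDTA-quenched samples were read by TR-FRET with Eu-anti-P-4E-BP1; IC50 from 9-dose 4-parameter fits.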
# [3] = system: MCF7 adenocarcinoma cell line; experiment: Cell proliferation studies in MCF7 cells (ATP-Lite); assay type: cell-based; details: Homo sapiens, 240 h, 10 days incubation, cell viability by ATP-Lite luminescence, read-out: PROLIFERATION_CTG_MCF7 IC50
# In short: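 MCF7 cells, seeded at 100 or 200 cells/well, were exposed for 10 days at 37 °C to a 9-point, 3-fold dilution series in quadruplicate, with media exchange and re-dosing on day 5. Viability was read by ATP-Lite luminescence, normalized to background and DMSO, and fitted for IC50.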
# [4] = Brain-to-plasma ratio determination in Sprague-Dawley rats; assay type: in vivo; details: rat, male Sprague-Dawley rats, four hours after a single oral dose (3, 4, 5, or 10 mg/kg)
# Protocol: Example B: Brain-to-Plasma Ratio Determination in Sprague-Dawley Rats
# The brain-to-plasma ratio (Kp) was determined in male Sprague-Dawley rats (7-9 weeks old) four hours after a single oral dose. Rats were acclimated and given free access to standard rodent chow and water throughout the entire study. Test articles were formulated as a solution at 0.3, 0.4, 0.5, or 1.0 mg/mL in a vehicle comprised of 10:15:75 (v:v:v) dimethylacetamide (DMA):Solutol HS15:water and delivered orally at a rate of 10 mL/kg to three rats to achieve final doses of 3, 4, 5, or 10 mg/kg, respectively. At 4 hours post-dose, blood samples were collected via jugular vein cannula into tubes containing K2EDTA as the anticoagulant and stored on ice. Blood samples were then centrifuged at 4° C. at 6000 rpm for 5 minutes, and the resulting plasma was placed into tubes and stored frozen at −80° C. until analysis. Whole brain samples were also collected at 4 hours post-dose. The weight of each brain was measured and recorded, and samples were immediately stored on dry ice. Brain samples were then transferred to storage at −80° C. until analysis.
# Prior to analysis, brain samples were combined with water (4 mL/1 gram of brain) and homogenized. Prior to injection, plasma and brain homogenate samples and standards were prepared for analysis by precipitation with acetonitrile or 1:1 (v:v) methanol:acetonitrile. Samples were then thoroughly mixed, centrifuged at 4000 rpm for 15 minutes, and the resulting supernatant was transferred for analysis. Test article concentrations in plasma and brain homogenate were then determined by LC-MS/MS and quantified against calibration standards prepared to known concentrations in matched blank (analyte-free) biological matrix. The Kp was then determined by dividing the dilution-corrected brain concentration by the plasma concentration from each rat. A brain density of 1 gram/mL was assumed for all calculations.
# Sequence of CDK6/Cyclin D1 (Q00534 whole entry): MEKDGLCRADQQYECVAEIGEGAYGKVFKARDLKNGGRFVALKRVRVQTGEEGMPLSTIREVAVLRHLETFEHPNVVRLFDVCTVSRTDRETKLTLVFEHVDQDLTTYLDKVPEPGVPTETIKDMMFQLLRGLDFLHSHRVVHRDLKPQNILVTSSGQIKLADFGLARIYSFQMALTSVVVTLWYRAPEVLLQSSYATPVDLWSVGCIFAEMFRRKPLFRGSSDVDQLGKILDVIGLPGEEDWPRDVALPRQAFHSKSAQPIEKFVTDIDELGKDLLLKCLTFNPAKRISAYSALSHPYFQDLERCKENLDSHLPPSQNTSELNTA
# Sequence of CDK6/Cyclin D1 (P24385 whole entry partner): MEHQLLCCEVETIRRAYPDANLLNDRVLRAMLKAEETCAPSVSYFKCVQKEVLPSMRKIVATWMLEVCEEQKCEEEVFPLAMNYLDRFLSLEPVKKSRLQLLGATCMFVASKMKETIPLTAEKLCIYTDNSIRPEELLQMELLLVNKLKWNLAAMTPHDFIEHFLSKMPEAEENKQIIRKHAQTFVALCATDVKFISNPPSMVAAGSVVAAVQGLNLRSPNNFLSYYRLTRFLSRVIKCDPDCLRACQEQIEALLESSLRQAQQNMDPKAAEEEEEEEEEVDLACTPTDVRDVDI
# Sequence of CDK4/Cyclin D1 (P11802 whole entry): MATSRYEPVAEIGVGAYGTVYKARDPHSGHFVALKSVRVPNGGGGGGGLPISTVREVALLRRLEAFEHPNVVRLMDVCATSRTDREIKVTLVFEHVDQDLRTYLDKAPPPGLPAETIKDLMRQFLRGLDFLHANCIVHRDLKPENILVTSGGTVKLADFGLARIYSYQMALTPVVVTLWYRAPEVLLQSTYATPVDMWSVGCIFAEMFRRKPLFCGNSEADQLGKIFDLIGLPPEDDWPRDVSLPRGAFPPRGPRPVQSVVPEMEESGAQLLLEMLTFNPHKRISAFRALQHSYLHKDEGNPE
# Sequence of CDK4/Cyclin D1 (P24385 whole entry partner): as the sequence (P24385 whole entry partner) above
Structure (SMILES),IC50 [1],IC50 [2],IC50 [3],Kp at 4 h [4]
"CCN1CC2(C1)CN(c1ccc(Nc3ncc(F)c(-c4ccc5c(c4)C4(CCCC4)N(C)C5=O)n3)nc1)C2 [Example 78, 6′-(2-((5-(6-Ethyl-2,6-diazaspiro[3.3]heptan-2-yl)pyridin-2-yl)amino)-5-fluoropyrimidin-4-yl)-2′-methylspiro[cyclopentane-1,1′-isoindolin]-3′-one]",≤ 20 nM,20 to 200 nM,20 to 200 nM,1 to 3
"CCN1CC2(CC(c3ccc(Nc4ncc(F)c(-c5sc6c(c5C)C(=O)N(C)C65CC5)n4)nc3)C2)C1 [Example 81, 2′-(2-((5-(2-Ethyl-2-azaspiro[3.3]heptan-6-yl)pyridin-2-yl)amino)-5-fluoropyrimidin-4-yl)-3′,5′-dimethylspiro[cyclopropane-1,6′-thieno[2,3-c]pyrrol]-4′(5′H)-one]",≤ 20 nM,≤ 20 nM,≤ 20 nM,< 1
